6 compounds from patent US10525071B2, “Compositions containing PUFA and methods of use thereof” (MASSACHUSETS INSTITUE OF TECHNOLOGY, priority 2005, dated 2020) can be followed below.

In one experiment the test system is PC-12 cells. Kind of experiment: 14C-choline incorporation into phospholipids in PC-12 cells. The class given is cell-based. The following applies: for Phosphatidylcholine (PC) synthesis (incorporation of 14C label into PC): 18 hr pre-incubation with 5 μM fatty acid, FIG. 1. As to the method:
PC-12 cells were maintained in Dulbecco's modified Eagle's medium (DMEM)+10% fetal bovine serum (FBS). For experiments, cells were grown in quintuplicate collagen-coated 35 millimeter (mm) dishes. Cells were incubated for 18 hours (hr) in serum-free DMEM containing 28 μM choline+/−5 micromolar (μM) of DHA, oleic acid, or palmitic acid. Cells were then labeled for 2.5 hr with 0.5 microcurie (μCi)/ml ^14C-choline in serum-free DMEM containing 10-micromolar (μM) choline.
Cells were homogenized in 100 volumes of ice-cold deionized water using a tissue degrader (Polytron PT 10-35, Kinematica A G, Switzerland); 1 ml of aliquots were then mixed with 3 ml of chloroform+methanol mixture (2:1 v/v) and vortexed vigorously for 30 seconds. After cooling for 1 h on ice, the mixture was mixed sequentially with 3 ml of chloroform+methanol mixture (2:1 v/v) and 1 ml of ice-cold deionized water. The mixture was vortexed vigorously and allowed to stand overnight in the cold room (18 h). The organic (lower) and aqueous (upper) phases of the mixtures were separated by centrifugation (10 min at 4° C.; 1000 g). An aliquot (2 ml) of the upper phase was used for determination of CDP-Choline (see below), and 0.1-0.4 ml aliquots of the lower phase were dried under vacuum for phospholipid analysis. Residues of 0.1 ml aliquots of the lower phase were assayed for total phospholipid content by measuring phosphorus. Residues of 0.4 ml aliquots of the lower phase were reconstituted in 40 μl methanol and subjected to thin-layer chromatography using silica G plates (Adsorbosil Plus-1®, Alltech), and a system consisting of chloroform/ethanol/triethylamine/water (30:34:30:8) as the mobile phase. Phospholipid standards were used to identify the corresponding bands under UV light after the plates were sprayed with 0.1% diphenylhexatriene in petroleum ether. Bands for individual phospholipid classes (PC, PE, SM, PS and PI) were scraped off the plates and extracted into 1 ml of methanol; dried under vacuum; and assayed for phosphorus content. Total phosphorus was determined by comparison with standard curves by using KH2PO4 run with each assay. […] Absorbance was measured spectrophotometrically at 820 nm. Phospholipid mass was determined by multiplying the phosphorus content by 25.
In order to assess the effect of omega-3 fatty acids on phospholipid synthesis, PC-12 cells were incubated with ^14C-labeled choline, following an 18-hour pre-incubation with or without DHA. Incorporation of label into phospholipids was then measured. […]
To further characterize the stimulation of phospholipid synthesis by omega-3 fatty acids, PC-12 cells were pre-treated with different doses of DHA and exposed to labeled choline as described in Example 1, then incorporation of ^14C-label into phospholipids was measured. […]

The test system of a further experiment is brain CDP-choline. Kind of experiment: Brain CDP-choline and CDP-ethanolamine levels (HPLC). Type of experiment: in vivo, gerbil. The following applies: 28 days; for brain CDP-choline levels: FIG. 5A; for brain CDP-ethanolamine levels: FIG. 5B. As to the method: FIG. 5. Effects of DHA on brain CDP-choline levels (A) and CDP-ethanolamine levels (B). Groups of 8 gerbils received either a control or a UMP-containing diet, and, by gavage, DHA (in a vehicle of 5% gum Arabic solution) or 5% gum Arabic solution alone for 28 days. On the 29th day brains were harvested and assayed for CDP-choline. Data are presented as means±SEM. Statistical analysis was performed using one- or two-way ANOVA followed by Tukey test. a: P<0.05 when compared with the values for control diet plus vehicle group; b: P<0.05 when compared with values for UMP diet plus vehicle group.
Aliquots (2 ml) of the upper (aqueous) phase were dried under a vacuum, reconstituted, and injected into an HPLC. The dried samples were reconstituted in 100-200 μl water and were analyzed by HPLC on an anion exchange column (Alltech Hypersil APS-2, […], 250×4.6 mm). CDP-choline was eluted with a linear gradient of buffers A (H3PO4, 1.75 mM, pH 2.9) and B (NaH2PO2, 500 mM, pH 4.5) from 0 to 100% B over period of 30 min. With this system, CDP-choline was resolved from closely co-eluting substances such as UMP in an isocratic system over a period of 40 min. The retention time for CDP-choline was 9.5 min. The column was washed with buffer B at the end of each experiment and every several days to remove retained nucleotides. Individual nucleotide peaks were detected by UV absorption at 280 nm and were identified by comparison with the positions of authentic standards, as well as by the addition of nucleotide standards to samples.

The test system of the next experiment is SHSY-5Y cells. Kind of experiment: 14C-choline incorporation into phospholipids in SHSY-5Y cells. Type of experiment: cell-based, human. The settings on record: for phospholipid synthesis: 18 hr with 10 μM fatty acid, FIG. 3A. As to the method: (§1) Cells were homogenized in 100 volumes of ice-cold deionized water using a tissue degrader (Polytron PT 10-35, Kinematica A G, Switzerland); 1 ml of aliquots were then mixed with 3 ml of chloroform+methanol mixture (2:1 v/v) and vortexed vigorously for 30 seconds. After cooling for 1 h on ice, the mixture was mixed sequentially with 3 ml of chloroform+methanol mixture (2:1 v/v) and 1 ml of ice-cold deionized water. The mixture was vortexed vigorously and allowed to stand overnight in the cold room (18 h). The organic (lower) and aqueous (upper) phases of the mixtures were separated by centrifugation (10 min at 4° C.; 1000 g). An aliquot (2 ml) of the upper phase was used for determination of CDP-Choline (see below), and 0.1-0.4 ml aliquots of the lower phase were dried under vacuum for phospholipid analysis. Residues of 0.1 ml aliquots of the lower phase were assayed for total phospholipid content by measuring phosphorus. Residues of 0.4 ml aliquots of the lower phase were reconstituted in 40 μl methanol and subjected to thin-layer chromatography using silica G plates (Adsorbosil Plus-1®, Alltech), and a system consisting of chloroform/ethanol/triethylamine/water (30:34:30:8) as the mobile phase. Phospholipid standards were used to identify the corresponding bands under UV light after the plates were sprayed with 0.1% diphenylhexatriene in petroleum ether. Bands for individual phospholipid classes (PC, PE, SM, PS and PI) were scraped off the plates and extracted into 1 ml of methanol; dried under vacuum; and assayed for phosphorus content. Total phosphorus was determined by comparison with standard curves by using KH2PO4 run with each assay. To each sample was added 0.5 ml of 4.5% HclO4/27% H2SO4 and tubes were heated at 180° C. for 3 h. After cooling to room temperature, 5 ml of the color reagent (a 10:1 dilution of solutions containing 2.5 mg/ml ammonium molybdate, 8.2 mg/ml sodium acetate and 100 mg/ml ascorbic acid respectively) was added and the tubes were incubated for 2 h, 37° C. Absorbance was measured spectrophotometrically at 820 nm. Phospholipid mass was determined by multiplying the phosphorus content by 25.
SHSY-5Y cells were grown to near confluency in DMEM+10% FBS in 35 mm dishes. Cells were incubated for 18 hr in serum-free DMEM+1% FBS containing 30 μM choline+/−10 μM of DHA, arachidonic acid, or palmitic acid. Cells were then labeled, and labeled phospholipids were quantified as described for Example 1.
DHA was dissolved in ethanol to a […] concentration and frozen in 10 microliter aliquots at −80° C. For each experiment, one aliquot was diluted in ethanol to 10 micromolar; the volume giving the desired final solution in incubation medium was mixed with an equal volume of BSA solution (1 gm/ml).

In a further experiment the test system is brain phospholipids. Kind of experiment: Brain phospholipid levels after UMP diet and/or PUFA gavage. The following applies: for brain phospholipid levels: 3 weeks, summary of Table 6; for increase in brain total phospholipids over control: DHA 300 mg/kg/day gavage, UMP 0.5% of chow. The class given is in vivo, gerbil. How it is done: as §1
Control standard diet (Table 4) consisted of Teklad Global 16% protein rodent diet (Harlan Teklad, Madison, Wis.), which contained 0.1% choline chloride (CC), corresponding to a daily dose of 50 mg/kg/day. UMP was provided as 0.5% UMP.2Na^+ weight/weight, added to the control diet, also prepared by Harlan Teklad, corresponding to 240 mg/kg/day UMP. DHA was administered as 300 mg/kg/day in 200 microliter (mcL)/day 5% Arabic Gum solution, while groups not receiving DHA were administered vehicle (5% Arabic Gum) alone. DHA was provided by Nu-Chek Prep (Elysian, Minn.) and UMP by Numico (Wagenigen, NL).
Gerbils were anesthetized with ketamine and xylazine (80 and 10 mg/kg bwt, i.p.) and sacrificed by immersing the head into liquid nitrogen for 2 min, followed by decapitation. Brains were immediately and quickly (30 seconds) removed using a bone rongeur and stored at −80° C.
Frozen brain hemispheres were weighed and homogenized in 100 volumes of ice-cold deionized water using a tissue degrader (Polytron PT 10-35, Kinematica A G, Switzerland), then analyzed as described in Example 1.
Protein in whole brain homogenate sample was measured for using bicinchoninic acid reagent (Perkin Elmer, Norwalk, Conn., USA). DNA was measured by measuring 460 nm emission of samples on a fluorometer in the presence of bisbenzimidizole, a fluorescent dye known as Hoechst H 33258 (American Hoechst Corporation), which has an excitation maximum at 356 nm and an emission maximum of 458 when bound to DNA.
Adult gerbils were administered control standard diet (Table 4) with our without 0.5% UMP and/or 300 mg/kg/day DHA, EPA, or AA. Groups not receiving DHA were administered vehicle (5% Arabic Gum) alone.

`CCC=CCC=CCC=CCC=CCC=CCC=CCCC(=O)O` [DHA, 4,7,10,13,16,19-docosahexaenoic acid]: in the experiment on PC-12 cells, the “Phosphatidylcholine (PC) synthesis (incorporation of 14C label into PC)” value (shortened to “Phosphatidylcholine (PC) synthesis”) is “significantly increased”. In the experiment with PC-12 cells (different doses of DHA, dose-dependent, FIG. 2), the “synthesis of phospholipids (incorporation of 14C-label)” value is reported as “increased”. Further, in the experiment on brain CDP-choline, the “brain CDP-choline levels” value is recorded as “decreased” and the “brain CDP-ethanolamine levels” value is on record as “decreased”. Moreover, the phospholipid synthesis result with SHSY-5Y cells was “not”. The “brain phospholipid, pmol phospholipid per milligrams (mg) protein” value in the experiment on brain phospholipids (FIG. 4A, gerbils, 4 weeks, ANOVA vs control) is reported as “statistically significant effect”. For the same compound, in the experiment with brain phospholipids (gerbils), the brain phospholipid levels result is listed as “increased”. Further, the “increase in brain total phospholipids over control” value in the experiment with brain phospholipids (gerbils, 4 weeks) worked out at 12%. In the experiment with brain phospholipids (vs control, Table 5A), the “increase in brain levels of PC” value is 22%, the “increase in brain levels of PE” value was 20%, the “increase in brain levels of PI” value is reported as 52% and the “increase in brain levels of sphingomyelin” value is reported as 24%.

Take `CCC=CCC=CCC=CCC=CCC=CCCCC(=O)O` [EPA, 5,8,11,14,17-eicosapentaenoic acid]: the brain phospholipid levels result in the experiment on brain phospholipids (gerbils) is on record as “increased”.

As to `O=c1ccn([C@@H]2O[C@H](COP(=O)(O)O)[C@@H](O)[C@H]2O)c(=O)[nH]1` [UMP, uridine monophosphate], in the experiment on brain CDP-choline, the “brain CDP-choline levels” value is listed as “decreased” and the “brain CDP-ethanolamine levels” value is recorded as “decreased”. The “effects on brain phospholipids” value in the experiment with brain phospholipids (After 1 week of treatment) is on record as “no significant effects”. For the same compound, the PtdEtn in the experiment with brain phospholipids (Table 5 part A, gerbil brain) is 84 ± 8 nmol/mg prt. Further, in the experiment with brain phospholipids (Treatment for 3 weeks, Table 5B), the “increases in all 5 of the phospholipids” value is recorded as “smaller but still significant increases”. In addition, in the experiment on brain phospholipids (gerbils, 4 weeks), the “increase in brain total phospholipids over control” value turned out to be 5%. In the experiment on brain phospholipids (vs control, Table 5A), the “increase in brain levels of PC” value was 13%, the “increase in brain levels of PE” value is 29% and the “increase in brain levels of PI” value came to 48%.

In the case of `CCCCCC=CCC=CCC=CCC=CCCCC(=O)O` [arachidonic acid, 5,8,11,14-eicosatetraenoic acid], in the experiment on SHSY-5Y cells, the phospholipid synthesis result is reported as “enhanced”. Besides, the “synthesis of total phospholipids, PC, and phosphatidylethanolamine” value in the experiment on SHSY-5Y cells (range of dosages, dose-dependent, FIG. 3B) was “increased”. Moreover, in the experiment on brain phospholipids (gerbils), the brain phospholipid levels result was “increased”.

In the case of `CCCCCCCC/C=C\CCCCCCCC(=O)O` [oleic acid, reference compound], the “Phosphatidylcholine (PC) synthesis” value in the experiment with PC-12 cells is listed as “not”.

Take `CCCCCCCCCCCCCCCC(=O)O` [palmitic acid, reference compound]: the “Phosphatidylcholine (PC) synthesis” value in the experiment with PC-12 cells is on record as “not”. Moreover, the phospholipid synthesis entry with SHSY-5Y cells is recorded as “not”.
